Source: patent US10645929B2, “Pyrimidine compound” (Sumitomo Chemical Company, Limited, priority 2015, dated 2020)

System: cucurbit leaf beetle (Aulacophora femoralis)
Assay: Test Example 10: sprayed cucumber leaves, cucurbit leaf beetle
Assay type: in vivo
Conditions: 50 ppm, spray 10 mL/seedling, 2nd instar larvae, after 5 days
Protocol: Next, Test examples are used to show efficacies of the Present compounds on controlling harmful arthropods. In the following Test examples, the tests were carried out at 25° C.
Each test compound is dissolved into a mixed solution (10 μL) of xylene, DMF, and a surfactant (at a volume ratio of xylene:DMF:surfactant=4:4:1) per 1 mg of the test compound, and water containing a spreader (0.03% by volume) is added thereto to prepare a diluted solution containing a prescribed concentration of each test compound.
Cucumber seedlings (on the developmental stage of the second to third true leaf) are planted in a plastic cup, and each of the diluted solutions is sprayed into the seedlings in the ratio of 10 mL/seedling. Thereafter, the second leaves are cut out and placed into a plastic cup, and 10 heads of the 2nd instar larvae of cucurbit leaf beetle (Aulacophora femoralis) are released into the cup, and the cup is covered with a lid. After 5 days, the number of the dead insects is counted, and the mortality of insects is calculated by the following equation. Mortality (%)=(Number of dead insects/10)×100

## CCS(=O)(=O)c1cc(C(F)(F)F)ccc1-c1ncc(OCC(F)(F)C(F)C(F)(F)F)cn1 (racemic) [compound 2]
  mortality: ≥ 80%
